{"source": "patent US8591865B2", "about": "“Renal function analysis method and apparatus” (Pharmacophotonics, Inc., priority 2008, dated 2013)", "key": {"[1]": {"test": "GFR in dog by iohexol analysis", "conditions": "33.0 kg dog", "quoted_text": "The higher noise in the data was caused by the movement during the data collection as the dog was not anesthetized."}, "[2]": {"test": "GFR by iohexol plasma clearance in gentamycin-induced AKI dogs", "type": "in vivo, dog", "description": "EDTA-anticoagulated blood was collected at 0, 5, 10, 20, 30, 60, 180, 240 and 300 minutes post-injection, centrifuged within 3 hours, and stored at -20° C."}, "[3]": {"test": "GFR in swine by iohexol plasma disappearance", "type": "in vivo, Osawbaw swine", "conditions": "same swine"}, "[4]": {"test": "Intravital 2-photon microscopy of plasma clearance (fluorescence intensity / intensity ratio in kidney blood vessels) after bolus infusion", "conditions": "kidney of normal male rat, bolus IV infusion of dye mixture, 12-200 seconds", "quoted_text": "These images were taken as function of time after a bolus intravenous infusion of a dye mixture containing a FITC-inulin (5.5 kD) and 500 kD dextran labeled with a sulforhodamine 101, i.e. Texas Red®. […] A red blood cell (RBC) appears as a dark object as it excludes dye.\nThe intensity ratio from the blood vessels in FIG. 3 changes over time with a change of relative concentrations of the two dyes.\nEach data point in FIG. 5 was the average ratio value of the same region from a blood vessel extracted from an image time-series (such as the images shown in FIG. 3). The data points were plotted every 0.5 seconds up to 200 seconds."}, "dogs": {"tested_on": "dogs", "test": "Gentamycin-induced acute kidney injury in dogs: serum creatinine, BUN, USG, UPC", "type": "in vivo, dog", "conditions": "individual dogs; for Creatinine: gentamycin 10 mg/Kg IV q8 hours", "from_the_text": "Five spayed female young adult hound-type mogrel dogs were confirmed to be in good health based on physical examination, complete blood count, blood chemistry analysis, urinalysis, urine protein-to-creatine ratio (UPC) and aerobic urine culture."}}, "note": "Where “and” joins values, the source holds several entries; their conditions need not be identical. Equal entries are not always repeated. Entries after “also recorded” stand apart in the source; their conditions may differ.", "data": [{"compound": "CC(=O)N(CC(O)CO)c1c(I)c(C(=O)NCC(O)CO)c(I)c(C(=O)NCC(O)CO)c1I", "note": "(stereo not drawn) [iohexol]", "values": [{"measurement": "GFR obtained from iohexol analysis", "setting": "[1]", "result": 4.50, "unit": "mL/min/kg"}, {"measurement": "GFR: Iohexol Plasma Clearance", "setting": "[2]; Day 0, 150 mg/kg iohexol IV, individual dogs (repeat results for two dogs), 150 mg/kg", "result": "2.77 mL/min/kg and 4.00 mL/min/kg and 3.71 mL/min/kg and 3.82 mL/min/kg and 4.40 mL/min/kg"}, {"measurement": "GFR: Iohexol Plasma Clearance", "setting": "[2]; Day 3 of gentamycin, individual dogs", "result": "2.00 mL/min/kg and 3.45 mL/min/kg and 2.05 mL/min/kg and 4.17 mL/min/kg and 3.06 mL/min/kg"}, {"measurement": "GFR: Iohexol Plasma Clearance", "setting": "[2]; Day 6 of gentamycin, individual dogs", "result": "2.78 mL/min/kg and 2.05 mL/min/kg and 2.46 mL/min/kg and 1.44 mL/min/kg and 3.36 mL/min/kg"}, {"measurement": "GFR: Iohexol Plasma Clearance", "setting": "[2]; Day 9 of gentamycin, individual dogs", "result": "1.87 mL/min/kg and 0.10 mL/min/kg and 1.49 mL/min/kg and 2.47 mL/min/kg"}, {"measurement": "clearance", "setting": "[2]; hound-type mongrel, dog, plasma, iv, 150 mg/kg, GFR: Iohexol Plasma Clearance, Day 0, 150 mg/kg iohexol IV, individual dogs (repeat results for two dogs)", "result": 3.28, "unit": "mL/min/kg"}, {"measurement": "GFR obtained using iohexol samples drawn for six hours", "setting": "[3]", "result": 2.02, "unit": "mL/min/kg"}]}, {"compound": "fluorescein isothiocyanate-inulin [FITC-inulin]", "values": [{"measurement": "glomerular filtration / plasma clearance seen as capillary fluorescence intensity over time", "setting": "[4]", "result": "rapidly filtered into the proximal tubular lumen; also recorded: immediate plasma clearance"}]}, {"compound": "gentamycin", "values": [{"measurement": "BUN", "setting": "dogs; Day 0 (baseline)", "result": "20 mg/dl (2×) and 14 mg/dl and 16 mg/dl and 9 mg/dl"}, {"measurement": "UPC (urine protein-to-creatine ratio)", "setting": "dogs; Day 0 (baseline)", "result": "0.1 (4×) and 0.2"}, {"measurement": "USG (urine specific gravity)", "setting": "dogs; Day 0 (baseline)", "result": "1.014 and 1.030 and 1.048 and 1.044 and 1.052"}, {"measurement": "Creatinine", "setting": "dogs; Day 0 (first day of injection, baseline)", "result": "0.8 mg/dl and 1.1 mg/dl and 0.9 mg/dl (2×) and 0.7 mg/dl"}, {"measurement": "Creatinine", "setting": "dogs; Day 3", "result": "0.9 mg/dl (2×) and 1.0 mg/dl (2×) and 0.8 mg/dl"}, {"measurement": "BUN", "setting": "dogs; Day 3", "result": "16 mg/dl and 12 mg/dl (2×) and 15 mg/dl and 14 mg/dl"}, {"measurement": "UPC (urine protein-to-creatine ratio)", "setting": "dogs; Day 3", "result": "0.5 and 1.0 and 0.2 and 0.3 (2×)"}, {"measurement": "USG (urine specific gravity)", "setting": "dogs; Day 3", "result": "1.008 and 1.014 (2×) and 1.000 and 1.010"}, {"measurement": "Creatinine", "setting": "dogs; Day 6", "result": "1.2 mg/dl and 1.5 mg/dl and 1.4 mg/dl and 1.0 mg/dl (2×)"}, {"measurement": "BUN", "setting": "dogs; Day 6", "result": "22 mg/dL and 15 mg/dL and 16 mg/dL and 10 mg/dL and 14 mg/dL"}, {"measurement": "UPC (urine protein-to-creatine ratio)", "setting": "dogs; Day 6", "result": "0.5 (2×) and 0.0 (2×) and 0.6"}, {"measurement": "USG (urine specific gravity)", "setting": "dogs; Day 6", "result": "1.009 and 1.003 and 1.007 and 1.005 and 1.010"}, {"measurement": "Creatinine", "setting": "dogs; Day 9", "result": "1.5 mg/dL and 5.3 mg/dL and 1.9 mg/dL and 1.6 mg/dL and 1.1 mg/dL"}, {"measurement": "BUN", "setting": "dogs; Day 9", "result": "16 mg/dl (2×) and 97 mg/dl and 18 mg/dl and 14 mg/dl"}, {"measurement": "UPC (urine protein-to-creatine ratio)", "setting": "dogs; Day 9", "result": "2.1 and 2.8 and 3.1 and 1.7 and 1.6"}, {"measurement": "USG (urine specific gravity)", "setting": "dogs; Day 9", "result": "1.006 (2×) and 1.011 and 1.004 and 1.005"}]}]}
